Reference: patent US20240382438A1, “Calcium Channel Blockers and Methods Thereof” (University of Maryland, Eastern Shore, priority 2023, published 2024)
Entries after “also recorded” stand apart in the source; their conditions may differ.

Tests used:
[1] = target: T1, human Cav3.2 (Homo sapiens, UniProt O95180); assay: Whole-cell patch clamp of T-type Ca2+ currents in Cav3.2-stable transfected HEK 293 cells; format: cell-based; settings: for Effect on whole cell capacitance / Effect on T-type Ca2+ current density: 50 μM; for Effect on T-type Ca2+ current density: vs non-treated cells
T1 construct: host or cells: HEK 293
Procedure: Certain exemplary embodiments have undergone target identification studies to discover a better officious T-type calcium blocker. The fourteen trifluoromethylated N-benzamide enaminone compounds were synthesized, purified, and structure confirmed using gas chromatography/mass spectroscopy, nuclear magnetic resonance, and elemental analysis. Preliminary in vitro whole cell patch clamp experiments were performed to assess the inhibitory effects of several target analogs on voltage-activated calcium currents in human embryonic kidney (HEK-293) cells. Cav3.2 transfected HEK 293 cells were treated with 50 μM of test compounds and compared to the control group (none pretreated HEK 293 cells).
(§1) ND7/23 cells are derived from the fusion of mouse neuroblastoma and rat dorsal root ganglion cells, which generates a more homogeneous sensory neuron-like cell population. ND7/23 cells were purchased from Sigma-Aldrich (RRID:CVCL_4259). Culture and differentiation of ND7/23 cells was performed as previously described. Briefly, ND7/23 cells were cultured in DMEM/F12 culture media (Millipore, Cat. #DF-041-B), supplemented with 0.5% fetal bovine serum (Invitrogen, Cat. #10437010), db-cAMP (1 mM, Sigma-Aldrich, Cat. #D0627), and nerve growth factor (NGF, 50 ng/mL, Sigma-Aldrich, Ca. #N2513). To remove any proliferating cells, cultures were treated with uridine (20 μM, Sigma-Aldrich, Cat. #U3003) and fluorodeoxyuridine (20 μM, Sigma-Aldrich, Cat. #F0503). Cells were maintained in differentiation media without uridine and fluorodeoxyuridin after induction of differentiation. ND7/23 cells were maintained in differentiation media for ≤6 days. HEK 293 cells that were stabled transfected with the human Cav3.2 and Cav3.3 channel subunits were a gift of Dr. E. Perez-Reyes (University of Virginia). Cav3.2 (or Cav3.3)-stabled transfected HEK 293 cells were culture in DMEM/F12 culture media, supplemented with 5% fetal bovine serum, 50 U/mL penicillin and 50 μg/mL streptomycin. ND7/23 and HEK 293 cells were grown in an incubator at 37° C. in the presence of 5% CO2/95% air humidified atmosphere. Cells passaged less than 20 times were used in this work. Cells were grown in poly-D-lysine-coated glass coverslips for electrophysiological recordings.
Whole cell recordings were performed as previously described. A Nikon Eclipse Ti inverted microscope equipped with Hoffman optics and epifluorescence filters was used to visualize individual cells. Recordings were performed at room temperature (22-24° C.) using glass electrodes made from thin wall borosilicate glass (3-5 MΩ). For electrophysiological recordings of inward Ca^2+ currents, outward K^+ currents were eliminated by equimolar substitution of K^+ with Cs^+ in the pipette solution, whereas inward Na^+ currents were eliminated by the use of TEA ions in the external solution, which are unable to go through voltage-gated Na^+ channels. The pipette solution consisted of (in mM) CsCl (120), MgCl2(2), HEPES (10), EGTA (10), ATP (1), and GTP (0.1), pH 7.4 with CsOH. The composition of the normal external saline used for measurements of Ca^2+ currents was (in mM): tetraethylammonium chloride (TEACl, 145), CaCl2 (10), MgCl2(1), HEPES (10), and glucose (5), pH 7.4 adjusted with CsOH. Ca^2+ currents were generated by applying a 200-500 ms-depolarizing step to various potentials from a holding potential of −100 mV. The external solution used to measure Na^+ currents contained (in mM) NaCl (145), KCl (5.3), CaCl2 (0.5), MgCl2 (5.7), HEPES (13), and glucose (5), pH 7.4 adjusted with KOH. The composition of the CsCl-pipette solution used to record Na^+ currents was the same describe above. Na^+ currents were generated by applying a 20 ms-depolarizing step to various potentials from a holding potential of −100 mV. To assess drug-evoked changes on specific ionic conductances, current amplitudes were expressed as current densities as previously reported. […]

[2] = test system: LNCaP prostate cancer cells; assay: XTT cell viability assay; format: cell-based; settings: 50 μM, 48 hours
Source text: FIG. 15. Effect of RHB121, RHB62, and RHB95 on the cell viability of LNCaP prostate cancer cells. […] Cell viability was expressed as a percent of control LNCaP cells that received no treatment. Control groups were arbitrarily assigned a 100% viability value.
To assess the effect of RHB62, RHB95, and RHB121 on cell viability, the XTT assay was used.

[3] = test system: voltage-activated Na^+ channels; assay: Whole-cell recording of Na+ currents in differentiated ND7/23 cells; format: cell-based, mouse neuroblastoma and rat dorsal root ganglion cells; settings: 50 μM
Procedure: as §1
Whole cell recordings were performed as previously described. A Nikon Eclipse Ti inverted microscope equipped with Hoffman optics and epifluorescence filters was used to visualize individual cells. Recordings were performed at room temperature (22-24° C.) using glass electrodes made from thin wall borosilicate glass (3-5 MΩ). For electrophysiological recordings of inward Ca^2+ currents, outward K^+ currents were eliminated by equimolar substitution of K^+ with Cs^+ in the pipette solution, whereas inward Na^+ currents were eliminated by the use of TEA ions in the external solution, which are unable to go through voltage-gated Na^+ channels. […] To assess drug-evoked changes on specific ionic conductances, current amplitudes were expressed as current densities as previously reported. […] Cell capacitance was determined by integrating the transient current evoked by a 10-mV voltage step from a holding potential of −60 mV.
A MULTICLAMP 700A amplifier and PCLAMP software (Axon Instruments) was used to deliver voltage commands and to perform data acquisition and analysis. […] Only cells with stable seals and series resistance (≤10 MΩ) were analyzed. […]

[4] = test system: differentiated ND7/23 cells; assay: Intracellular calcium signals in differentiated ND7/23 cells stimulated with KCl or ionomycin; format: cell-based, mouse neuroblastoma and rat dorsal root ganglion cells; settings: 50 μM pre-treatment
Procedure: FIGS. 14A-C. Effect of RHB121 on the intracellular calcium signals generated in differentiated ND7/23 cells following stimulation with 30 mM extracellular K+ ions or the calcium ionophore ionomycin (10 μM). FIG. 14A. […] FIG. 14B. […] FIG. 14C. Relative changes in the intracellular calcium signal generated in differentiated ND7/23 cells by 30 mM KCl or Ionomycin (10 μM) in control or RHB121-treated cells. Control groups were arbitrarily assigned a 100% intracellular calcium signal.
To assess the effect of RHB121 on intracellular calcium signals, differentiated ND7/23 cells with a high potassium concentration (30 mM KCl) were simulated. The effect of the calcium ionophore Ionomycin, which also can increase intracellular calcium by a different mechanism, independently of T-type Ca^2+ channel activation, was also tested. Stimulation of differentiated ND7/23 with 30 mM KCl external solution caused a small increase in the intracellular calcium signal (FIG. 14A).

T1 sequence (O95180 whole entry): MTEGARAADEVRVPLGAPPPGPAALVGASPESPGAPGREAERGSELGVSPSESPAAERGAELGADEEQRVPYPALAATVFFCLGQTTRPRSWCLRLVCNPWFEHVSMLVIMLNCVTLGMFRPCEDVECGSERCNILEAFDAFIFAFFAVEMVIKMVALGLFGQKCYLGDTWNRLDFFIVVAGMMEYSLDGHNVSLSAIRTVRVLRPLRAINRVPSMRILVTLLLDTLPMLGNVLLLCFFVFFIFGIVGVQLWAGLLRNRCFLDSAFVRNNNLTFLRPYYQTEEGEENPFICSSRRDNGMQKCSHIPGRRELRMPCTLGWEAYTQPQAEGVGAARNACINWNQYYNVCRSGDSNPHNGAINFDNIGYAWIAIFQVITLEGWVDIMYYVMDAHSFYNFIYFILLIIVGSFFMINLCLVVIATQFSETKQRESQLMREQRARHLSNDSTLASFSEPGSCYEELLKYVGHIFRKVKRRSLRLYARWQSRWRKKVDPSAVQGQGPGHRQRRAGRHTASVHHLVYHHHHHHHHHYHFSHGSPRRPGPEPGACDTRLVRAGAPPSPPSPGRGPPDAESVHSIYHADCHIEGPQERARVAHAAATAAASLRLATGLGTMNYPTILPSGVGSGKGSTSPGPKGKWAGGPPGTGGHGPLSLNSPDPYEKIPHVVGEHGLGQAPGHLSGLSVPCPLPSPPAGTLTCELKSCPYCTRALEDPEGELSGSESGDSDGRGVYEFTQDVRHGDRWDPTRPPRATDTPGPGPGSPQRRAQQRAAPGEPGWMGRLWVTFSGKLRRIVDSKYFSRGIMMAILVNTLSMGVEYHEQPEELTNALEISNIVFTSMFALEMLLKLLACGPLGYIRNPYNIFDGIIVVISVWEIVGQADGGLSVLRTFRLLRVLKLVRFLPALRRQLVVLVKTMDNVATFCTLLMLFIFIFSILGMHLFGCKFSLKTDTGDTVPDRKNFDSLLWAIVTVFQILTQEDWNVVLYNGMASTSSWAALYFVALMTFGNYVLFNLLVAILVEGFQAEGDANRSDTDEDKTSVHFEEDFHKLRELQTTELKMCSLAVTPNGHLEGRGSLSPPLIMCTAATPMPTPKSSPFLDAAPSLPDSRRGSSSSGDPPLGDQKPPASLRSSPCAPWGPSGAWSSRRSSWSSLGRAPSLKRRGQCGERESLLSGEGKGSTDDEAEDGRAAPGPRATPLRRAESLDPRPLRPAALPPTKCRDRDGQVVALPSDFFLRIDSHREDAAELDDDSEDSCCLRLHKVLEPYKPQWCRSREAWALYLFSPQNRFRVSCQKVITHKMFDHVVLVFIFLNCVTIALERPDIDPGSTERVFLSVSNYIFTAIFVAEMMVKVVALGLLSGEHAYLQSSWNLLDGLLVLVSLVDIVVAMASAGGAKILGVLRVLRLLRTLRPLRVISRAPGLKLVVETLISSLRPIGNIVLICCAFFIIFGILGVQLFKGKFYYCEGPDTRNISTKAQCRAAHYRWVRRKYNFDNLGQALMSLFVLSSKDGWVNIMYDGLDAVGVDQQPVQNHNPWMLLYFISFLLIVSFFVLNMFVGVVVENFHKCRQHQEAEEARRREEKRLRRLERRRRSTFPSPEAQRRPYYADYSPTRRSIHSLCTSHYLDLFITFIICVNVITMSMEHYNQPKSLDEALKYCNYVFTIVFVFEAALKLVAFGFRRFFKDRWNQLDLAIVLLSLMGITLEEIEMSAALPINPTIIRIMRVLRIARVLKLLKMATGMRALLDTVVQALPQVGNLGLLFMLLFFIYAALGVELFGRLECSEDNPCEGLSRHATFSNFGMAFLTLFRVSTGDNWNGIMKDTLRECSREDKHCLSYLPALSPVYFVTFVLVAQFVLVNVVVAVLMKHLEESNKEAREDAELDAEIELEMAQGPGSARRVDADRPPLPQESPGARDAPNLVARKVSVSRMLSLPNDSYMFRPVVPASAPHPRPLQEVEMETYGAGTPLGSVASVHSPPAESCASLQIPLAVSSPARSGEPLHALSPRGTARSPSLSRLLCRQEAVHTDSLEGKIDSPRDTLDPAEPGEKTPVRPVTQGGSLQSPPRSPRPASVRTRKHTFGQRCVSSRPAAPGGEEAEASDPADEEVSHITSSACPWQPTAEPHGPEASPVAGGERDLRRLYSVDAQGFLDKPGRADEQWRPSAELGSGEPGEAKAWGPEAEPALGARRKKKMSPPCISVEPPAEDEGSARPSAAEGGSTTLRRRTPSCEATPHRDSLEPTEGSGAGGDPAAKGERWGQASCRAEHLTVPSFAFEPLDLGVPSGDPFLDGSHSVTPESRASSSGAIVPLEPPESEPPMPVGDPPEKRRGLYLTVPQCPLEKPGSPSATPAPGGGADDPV

| Effect on T-type Ca2+ current density ([1]; HEK 293-Cav3.2 cells) | Effect on T-type Ca2+ current density ([1]; HEK 293-Cav3.2 cells, listed as RHB-95) | Effect on activation time constant (τ) ([1]; 10 μM) | Shift of the steady-state inactivation curve ([1]; 10 μM) | Effect on whole cell capacitance ([1]; HEK 293-Cav3.2 cells, listed as RHB 121) | inhibition at 50 µM ([1]; HEK293, 50 μM, Cav3.2 transfected HEK 293 cells, read-out: Inhibition of calcium currents on T-type calcium channels) | Concentration dependence of the inhibition of T-type Ca2+ currents ([1]; HEK 293-Cav3.2 cells) | SMILES | Effect on whole cell capacitance ([1]; HEK 293-Cav3.2 cells) | Effect on cell viability (XTT assay) [2] | Effect on Na+ current density [3] | Effect on intracellular calcium signal evoked with 30 mM KCl [4] | Effect on intracellular calcium signal evoked with Ionomycin (10 μM) [4] |
| --- | --- | --- | --- | --- | --- | --- | --- | --- | --- | --- | --- | --- |
| significant reduction | No inhibitory effect |  |  |  |  |  | O=C1C=C(NC(=O)c2cccc(C(F)(F)F)c2)CC(C(F)(F)F)C1 (stereo not drawn) [RHB95] | no significant changes; also recorded: no effect on cell capacitance | do not affect the cell viability; also recorded: no effect on the cell viability |  |  |  |
| significant reduction |  | does not alter; also recorded: no effect | leftward shift | no significant changes | ~100% | concentration-dependent | O=C1C=C(NC(=O)c2cccc(OC(F)(F)F)c2)CC(C(F)(F)F)C1 (stereo not drawn) [RHB121, N-(3-oxo-5-(trifluoromethyl)cyclohex-1-en-1-yl)-3-(trifluoromethoxy)benzamide] | no effect on cell capacitance | do not affect the cell viability; also recorded: no effect on the cell viability | does not affect; also recorded: no effect on the Na^+ current densities | complete inhibition; also recorded: significant reduction | still evoked a significant response; also recorded: significant reduction |

| SMILES | Effect on T-type Ca2+ current density ([1]; HEK 293-Cav3.2 cells) | Effect on T-type Ca2+ current density ([1]; HEK 293-Cav3.2 cells, listed as RHB-95) | Effect on activation time constant (τ) ([1]; 10 μM) | Shift of the steady-state inactivation curve ([1]; 10 μM) | Effect on whole cell capacitance ([1]; HEK 293-Cav3.2 cells, listed as RHB 121) | inhibition at 50 µM ([1]; HEK293, 50 μM, Cav3.2 transfected HEK 293 cells, read-out: Inhibition of calcium currents on T-type calcium channels) | Concentration dependence of the inhibition of T-type Ca2+ currents ([1]; HEK 293-Cav3.2 cells) | Effect on whole cell capacitance ([1]; HEK 293-Cav3.2 cells) | Effect on cell viability (XTT assay) [2] | Effect on Na+ current density [3] | Effect on intracellular calcium signal evoked with 30 mM KCl [4] | Effect on intracellular calcium signal evoked with Ionomycin (10 μM) [4] |
| --- | --- | --- | --- | --- | --- | --- | --- | --- | --- | --- | --- | --- |
| Cc1cc(C)cc(C(=O)NC2=CC(=O)CC(C(F)(F)F)C2)c1 (stereo not drawn) [RHB62] | significant reduction; also recorded: reduction in the Ca^+2 current, with lower potency than RHB-77 |  |  |  |  |  |  | no significant changes; also recorded: no effect on cell capacitance | do not affect the cell viability; also recorded: no effect on the cell viability |  |  |  |
